In PubChem BioAssay (NCI) one finds TGI and GI50 data, which are given here for 15 molecules.

Several values for one entry are separate records, joined by “and”; a condition that tells them apart may be missing. Equal values may be shown once.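 Tested at 5 concentrations; 48 h exposure; 96-well plates; endpoints linearly interpolated, else capped at highest concentration. GI50 marks 50% less growth. The concentration for full growth arrest is given as TGI.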 Where a SMILES comes first, the peptide text is derived from it. [ ]: non-standard residue; d: D form. The star is where a group is joined. ξ: configuration not given here. NMeY = CN[C@@H](Cc1ccc(O)cc1)C(=O)O; Cbz = O=C(OCc1ccccc1)*; ξA = CC(N)C(=O)O

Some test systems named below: U251 CNS; SR leukemia; OVCAR-8 ovarian; HCT-15 colon; NCI-H460 lung; SW-620 colon; UO-31 renal; MALME-3M melanoma; DMS 273 small cell lung; KM20L2 colon.
Holding throughout (experiment): inhibition of tumour cell growth, NCI panel, 48 h

As for `COc1ccc(C[C@@H](C(=O)NCC(N)=O)N(C)C(=O)[C@@H]2CCCN2C(=O)[C@H](CC(C)C)NC(=O)C(C)NC(=O)OCc2ccccc2)cc1` (stereo partly drawn) (Cbz-[ξA]LP[NMeY](Me)G-NH2), the TGI in the experiment with U251 CNS, in the experiment with SR leukemia, in the experiment on OVCAR-8 ovarian, with HCT-15 colon, in the experiment on NCI-H460 lung and with SW-620 colon was greater than 100 µM throughout. In addition, the TGI in the experiment on UO-31 renal and in the experiment with MALME-3M melanoma was greater than 100 µM in each case.

With `Oc1ccc2ccccc2c1-c1nnc(CCCCCCCCc2nnc(-c3c(O)ccc4ccccc34)o2)o1`, the GI50 with U251 CNS is 17.2 µM; in the experiment with SR leukemia it was 1.6 µM and 0.28 µM; with OVCAR-8 ovarian, 0.317 µM; with HCT-15 colon, 0.563 µM; with NCI-H460 lung it was 0.715 µM; in the experiment with UO-31 renal, 0.93 µM. Also, in the experiment with MALME-3M melanoma, the GI50 was 8.98 µM. In addition, the TGI with U251 CNS is 25 µM and > 63.8 µM; in the experiment with SR leukemia, 25 µM and 11.9 µM; with HCT-15 colon, 25 µM and > 100 µM; in the experiment on NCI-H460 lung, 25 µM and > 47.2 µM; with SW-620 colon, 25 µM and > 43.2 µM; in the experiment with UO-31 renal, 19.2 µM and 15.4 µM. For the same molecule, the TGI in the experiment on MALME-3M melanoma is 8.33 µM and 58.2 µM.

As to `CCOC(=O)CCC(NC(=O)OCc1ccccc1)C(=O)NNC(=O)OC(C)(C)C` (stereo not drawn), the TGI in the experiment on U251 CNS, with SR leukemia, with OVCAR-8 ovarian, in the experiment on HCT-15 colon, in the experiment with NCI-H460 lung and in the experiment on SW-620 colon was greater than 100 µM throughout. The TGI in the experiment with UO-31 renal and in the experiment with MALME-3M melanoma was greater than 100 µM throughout.

In the case of `O=C1CCC2(CC1)Cc1ccccc1C2O` (stereo not drawn), the TGI with U251 CNS, with SR leukemia, with OVCAR-8 ovarian, in the experiment with HCT-15 colon, in the experiment on NCI-H460 lung and with SW-620 colon was greater than 100 µM throughout. In addition, the TGI in the experiment on UO-31 renal and in the experiment on MALME-3M melanoma was greater than 100 µM each time.

Regarding `CC(=O)Oc1ccc2cc(Oc3ccc(Cl)cc3)c(=O)oc2c1`, the TGI in the experiment on U251 CNS was greater than 100 µM; in the experiment with SR leukemia, greater than 100 µM; in the experiment on OVCAR-8 ovarian, 54 µM; with HCT-15 colon, greater than 100 µM; with NCI-H460 lung it was greater than 100 µM; in the experiment on SW-620 colon, greater than 100 µM. In addition, the TGI in the experiment on UO-31 renal and with MALME-3M melanoma was greater than 100 µM in each case.

In the case of `Cc1[nH]c(=O)nc(N/N=C/c2ccc(Cl)c(Cl)c2)c1C(=O)Nc1ccc(Cl)c(Cl)c1`, the TGI is 18.5 µM in the experiment on U251 CNS; greater than 100 µM with SR leukemia; 14.8 µM with OVCAR-8 ovarian; greater than 42.9 µM in the experiment with HCT-15 colon; greater than 49.6 µM in the experiment on NCI-H460 lung; greater than 30 µM in the experiment on SW-620 colon. The TGI was greater than 56.2 µM in the experiment with UO-31 renal and greater than 44.5 µM in the experiment on MALME-3M melanoma.

In the case of `CSc1c(C(C)=O)c(O)n(-c2ccc(Cl)cc2)c(=O)c1C#N`, the TGI was greater than 100 µM with U251 CNS; greater than 100 µM in the experiment with SR leukemia; greater than 100 µM in the experiment with OVCAR-8 ovarian; 99.5 µM in the experiment with HCT-15 colon; greater than 100 µM in the experiment on NCI-H460 lung; greater than 100 µM in the experiment on SW-620 colon. In addition, the TGI with UO-31 renal was 84.6 µM; in the experiment on MALME-3M melanoma, greater than 100 µM.

Regarding `O=S1(=O)NNC(=NCc2ccc(F)cc2)c2ccccc21`, the TGI in the experiment with U251 CNS is greater than 83.4 µM; in the experiment on SR leukemia, greater than 68.8 µM; with OVCAR-8 ovarian, greater than 100 µM; in the experiment with DMS 273 small cell lung, greater than 100 µM; in the experiment on HCT-15 colon it was greater than 100 µM; in the experiment with NCI-H460 lung it was greater than 31.6 µM. Also, the TGI in the experiment with KM20L2 colon, in the experiment on SW-620 colon, with UO-31 renal and in the experiment with MALME-3M melanoma was greater than 100 µM throughout.

Turning to `O=C1CCSSCCC(=O)Nc2ccccc2N1`, the TGI in the experiment with U251 CNS, in the experiment with SR leukemia, in the experiment with OVCAR-8 ovarian, in the experiment on HCT-15 colon, in the experiment on NCI-H460 lung and in the experiment with SW-620 colon was greater than 100 µM throughout. Moreover, the TGI in the experiment on UO-31 renal and in the experiment with MALME-3M melanoma was greater than 100 µM each time.

Turning to `CNc1ccc2nc(-c3ccc(OC(=O)N(C)C)cc3)cn2c1`, the TGI in the experiment with U251 CNS turned out to be 28.8 µM; in the experiment with SR leukemia, 44.1 µM; with OVCAR-8 ovarian it was 30.3 µM; in the experiment on HCT-15 colon it was 40.2 µM; in the experiment on NCI-H460 lung it was 34.4 µM; with SW-620 colon, 51.4 µM. In addition, the TGI in the experiment on UO-31 renal was 35.4 µM; in the experiment on MALME-3M melanoma, greater than 100 µM.

Consider `C=C[C@]1(C)CC[C@]2(C)C(CC[C@@]3(C)C2C[C@H](O)[C@H](O)[C@@]3(C)O)C1` (stereo partly drawn), for which the TGI with U251 CNS, in the experiment on SR leukemia, with OVCAR-8 ovarian, with HCT-15 colon, in the experiment with NCI-H460 lung and in the experiment on SW-620 colon was greater than 100 µM throughout. The TGI in the experiment with UO-31 renal and in the experiment with MALME-3M melanoma was greater than 100 µM in each case.

As for `CC(=O)N[C@@H](Cc1ccc(O)cn1)C(=O)NCc1ccc2c(c1)OCO2`, the TGI in the experiment on U251 CNS, in the experiment on SR leukemia, with OVCAR-8 ovarian, in the experiment on HCT-15 colon, in the experiment on NCI-H460 lung and in the experiment on SW-620 colon was greater than 100 µM in each case. Also, the TGI in the experiment on UO-31 renal and in the experiment on MALME-3M melanoma was greater than 100 µM in each case.

Turning to `NC(N)=N/N=C(\c1ccc(Cl)cc1)C1CC1`, the TGI stood at 27.2 µM in the experiment on U251 CNS; 29.1 µM with SR leukemia; 40.4 µM in the experiment on OVCAR-8 ovarian; 40.2 µM with HCT-15 colon; 29.9 µM with NCI-H460 lung; 35.2 µM with SW-620 colon. Further, the TGI in the experiment with UO-31 renal amounted to 79.9 µM; with MALME-3M melanoma, 29 µM.

Consider `CCOC(=O)/C=C1\Nc2ccccc2C12CCc1c([nH]c3ccccc13)C2C(=O)OCC` (stereo not drawn), for which the TGI with U251 CNS, with SR leukemia, with OVCAR-8 ovarian, in the experiment on HCT-15 colon, in the experiment with NCI-H460 lung and in the experiment on SW-620 colon was greater than 100 µM in each case. Besides, the TGI in the experiment with UO-31 renal and with MALME-3M melanoma was greater than 100 µM throughout.

Regarding `COc1cc(C(=O)Nc2nnc(S(N)(=O)=O)s2)cc(OC)c1OC`, the TGI with U251 CNS, in the experiment on SR leukemia, with OVCAR-8 ovarian, with HCT-15 colon, in the experiment with NCI-H460 lung and in the experiment with SW-620 colon was greater than 100 µM in each case. Moreover, the TGI in the experiment with UO-31 renal and in the experiment on MALME-3M melanoma was greater than 100 µM in each case.
